Measured values as given in publication PMC9658668, “Phytochemical Variability, In Vitro and In Vivo Biological Investigations, and In Silico Antibacterial Mechanisms of Mentha piperita Essential Oils Collected from Two Different Regions in Morocco” (Foods, 2022).
Marks after values point to notes of the source that are not given here. Each block holds one compound with its values, some of them ahead of it.

Tests used:
H2O2-scavenging activity = assay: H2O2-scavenging activity
Protocol: The H2O2 radical scavenging activity of extracts was determined according to the method described by Ruch et al.. Briefly, 40 mM of H2O2 solution was prepared in phosphate buffer (pH 7.4). A total of 1 mL of M. piperita HE at a concentration of 1 mg/mL was added to 0.6 mL of H2O2 solution. The mixture was incubated at 25 °C for 10 min, and the absorbance of H2O2 was determined at 230 nm against a blank solution containing phosphate buffer without H2O2. The positive control used is Ascorbic acid. The H2O2 trapping capacity was expressed as an IC50 value (µg/mL).

[1] = Trolox equivalent antioxidant capacity (ABTS) assay
Protocol: The assay was carried out using the ABTS^+ method as described by Re et al. with some modifications. Briefly, the ABTS radical cation was generated by mixing 10 mL of 2 mM ABTS with 100 µL of potassium persulfate (2.45 mM). After the reaction mixture is kept in the dark at room temperature for 16 h, methanol is used to dilute the ABTS solution to obtain an absorbance of 0.700 at 734 nm. Two hundred µL of the essential (1 mg/mL) was mixed with 2 mL of diluted ABTS solution. The mixture was allowed to react for 1 min, and the absorbance was measured at 734 nm. Trolox is used as a reference standard. The results were expressed as an IC50 value (µg/mL).

[2] = DPPH radical-scavenging activity
Protocol: The essential oil of Mentha piperita was performed using a 1,1-diphenyl-2-picryl hydrazyl (DPPH) technique, as reported in Brand-Williams et al. with some changes. Briefly, a 2.5 mL aliquot of DPPH solution was mixed with 1.25 mL of the essential oil at a concentration of 1 mg/mL, and then the obtained solution was incubated at 25 °C for 30 min. The absorbance was measured at 517 nm.

B. subtilis ATCC 6633 = assay: MIC and MBC determination; type: cell-based, Bacillus subtilis; set-up: MIC / MBC: unit not given beside the values
Protocol: (§1) The antibacterial activity of M. piperita essential oils (MPEO) from Ouezzane and Azrou regions (Morocco) was evaluated against the following six bacterial strains: three gram-positive bacteria (Staphylococcus aureus ATCC 29213, Listeria monocytogenes ATCC 13932, Bacillus subtilis ATCC 6633), and three gram-negative bacteria (Escherichia coli ATCC 25922, Salmonella typhimurium ATCC 700408, and Pseudomonas aeruginosa ATCC 27853).
(§2) An inoculum of the frozen stock (−20 °C) was utilized to inoculate Mueller–Hinton Agar (Biokar, Beauvais, France), where it was incubated for 24 h at 37 °C to revive the bacteria. Then, an inoculum was removed from a bacterial colony and diluted to 0.5 McFarland in sterile salt water (0.9% NaCl) before being transferred to a sterile tube where the weighty particles were left to settle for 5 min. The top homogeneous solutions were transferred to a new, sterile tube and their concentration was adjusted to the 0.5 McFarland turbidity standard to obtain an inoculum of about […], which was used in the antibacterial testing
(§3) The minimum inhibitory concentration (MIC) is the lowest essential oil concentration that could prevent the growth of bacteria. The determination of MIC values against bacteria was conducted according to the previously reported procedure with a minor change, using Mueller–Hinton broth (Biokar, Beauvais, France) and bacteria. Twenty-four h of incubation was done at 37 °C. The antibiotic chloramphenicol served as a positive control. In sterile microtubes, two-fold serial dilutions of EO concentrations ranging from 4% to 0.0625 % (v/v) were made in Mueller–Hinton broth containing 5% of DMSO. […] Then, 5 µL of the previously produced bacterial suspension was added to each tube. Each suspension was homogenized and incubated for 24 h at 37 °C. As a first negative control, microtubes containing liquid medium and EO were used. […]
(§4) The MBC was determined to be the minimum concentration at which no growth occurred in the medium. […]

[3] = system: L. monocytogenes ATCC 13932; assay: MIC and MBC determination; type: cell-based, Listeria monocytogenes; set-up: MIC / MBC: unit not given beside the values
Protocol: as §1, §2, §3, §4

S. aureus ATCC 29213 = assay: MIC and MBC determination; type: cell-based, Staphylococcus aureus; set-up: MBC: unit not given beside the values
Protocol: as §1, §2
(§5) The minimum inhibitory concentration (MIC) is the lowest essential oil concentration that could prevent the growth of bacteria. […]
as §4

E. coli ATCC 25922 = assay: MIC and MBC determination; type: cell-based, Escherichia coli; set-up: MBC: unit not given beside the values
Protocol: as §1, §2, §5, §4

[4] = system: S. typhimurium ATCC 700408; assay: MIC and MBC determination; type: cell-based, Salmonella typhimurium
Protocol: as §1, §2, §3, §4

P. aeruginosa ATCC 27853 = assay: MIC and MBC determination; type: cell-based, Pseudomonas aeruginosa; set-up: unit not given beside the values; conditions: chloramphenicol, unit not given
Protocol: as §1, §2, §5, §4

[5] = system: carrageenan-induced rat paw edema; assay: Carrageenan-induced paw edema; type: in vivo, Wistar rats; conditions: EO 100 mg/kg oral, indomethacin 10 mg/kg
Protocol: The studies were carried out on adult rats of the Wistar strain, obtained from the central animal facility of the Faculty of Medicine and Pharmacy of Rabat. These rats weighed between 200 and 250 g. The temperature was maintained at 20 °C with a lighting cycle of 12 h of light and 12 h of darkness. The study was approved by the Ethics Committee from Mohammed V University, (Protocol code # UA-2021-09; date of approval 27 May 2021).
The anti-inflammatory effects were studied using the carrageenan-induced paw edema method previously described by Musa G. Rege et al.. Briefly, Wistar rats (160 to 200 g) were randomly divided into […] (n = 6). The first two groups were orally administered with 100 mg/kg of M. pepirita EO. The third group was a negative control which received distilled water, while the last group was considered a positive control and received indomethacin (10 mg/kg) as the reference anti-inflammatory drug. After 60 min, all rats were injected subcutaneously with carrageenan solution (0.05 mL of 1% carrageenan suspended in 0.9% NaCl) into the subplantar region of the left hind paw. […] The anti-inflammatory effect is calculated using the following equation. In each group, the anti-inflammatory effect is measured by the percentage of edema inhibition (% INH) in paw volume, as follows: %INH = (mean [VL − VR] Control − mean [VL − VR] Treated)/[VL − VR] Control × 100 • With: VL: volume of the left paw. • VR: volume of the right paw.

[6] = chloramphenicol, unit not given

H2O2 IC50 (H2O2-scavenging activity): 3.23 ± 0.08 ^a µg/mL | ABTS Test IC50 [1]: 74.81 ± 0.01 ^a µg/mL | DPPH IC50 [2]: 09.03 ± 0.02 ^a µg/mL
Structure (SMILES): O=C1O[C@H]([C@@H](O)CO)C(O)=C1O [Ascorbic acid]

MBC/MIC (B. subtilis ATCC 6633): 1.0 | MIC (B. subtilis ATCC 6633; [6]): 32.0 | MBC/MIC [3]: 1.0 | MIC [3, 6]: 2.0 | MBC/MIC (S. aureus ATCC 29213): 1.0 | MBC/MIC (E. coli ATCC 25922): 1.0 | MBC/MIC [4]: 1.0 | MIC [4, 6]: 64.0 | MIC (P. aeruginosa ATCC 27853): >64.0
Structure (SMILES): O=C(N[C@H](CO)[C@H](O)c1ccc([N+](=O)[O-])cc1)C(Cl)Cl [Chloramphenicol]
MBC (B. subtilis ATCC 6633; [6]): 32.0 | MBC [3, 6]: 2.0 | MBC (S. aureus ATCC 29213; [6]): 4.0 | MBC (E. coli ATCC 25922; [6]): 8.0 | MBC [4, 6]: 64.0 | MBC (P. aeruginosa ATCC 27853): >64.0

Structure (SMILES): COc1ccc2c(c1)c(CC(=O)O)c(C)n2C(=O)c1ccc(Cl)cc1 [Indomethacin]
Mean Edema Volume (Left-Right Paw) ([5]; 1 h 30 min): 0.146 ± 0.04 mL | Percentage Inhibition of Edema ([5]; 1 h 30 min): 69.77% | Mean Edema Volume (Left-Right Paw) ([5]; 3 h): 0.178 ± 0.01 mL | Percentage Inhibition of Edema ([5]; 3 h): 70.23% | Mean Edema Volume (Left-Right Paw) ([5]; 6 h): 0.191 ± 0.01 mL | Percentage Inhibition of Edema ([5]; 6 h): 59.61%
